This note sets out measurements from patent US11236087B2, “Highly active pyrazolo-piperidine substituted indole-2-carboxamides active against the hepatitis B virus (HBV)” (AiCuris GmbH & Co. KG, priority 2017, dated 2022).

Series [1] in a line: Cell viability assay (AlamarBlue) in HepAD38 cells. As to conditions: human. A general note: The colour change of resazurin is a common sign of viable cells or microbes.
Series [2] concerns HBV. As to the kind of experiment: Determination of HBV DNA from the supernatants of HepAD38 cells (anti-HBV activity). Conditions: Hepatitis B virus, 144 h; HBV DNA in HepAD38 supernatant, day 6, qPCR; read-out: Cell Activity (EC50). The format is cell-based, hepatitis B virus. The procedure, abridged: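 Supernatant viral DNA was measured by LightCycler qPCR, calibrated with pCH-9/3091 plasmid, 6 days after tetracycline-free HepAD38 cultures received half-log serial compound dilutions; untreated and tetracycline-treated cells served as controls; EC50 was fitted by non-linear regression.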
In general terms: Real-time PCR tracks product formation cycle by cycle.

The target in series [3] is T1, HBV core protein (UniProt P03146).
T1 construct: fused on or other part: BODIPY-FL maleimide label on the C-terminal Cys150
T1 sequence (P03146 whole entry, looked up, the tested form may be a part): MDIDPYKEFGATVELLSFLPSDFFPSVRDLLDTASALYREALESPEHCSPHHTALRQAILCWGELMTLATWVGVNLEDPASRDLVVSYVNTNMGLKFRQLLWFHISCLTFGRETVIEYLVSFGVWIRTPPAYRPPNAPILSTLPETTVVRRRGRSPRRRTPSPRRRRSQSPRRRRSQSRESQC
Description: Biochemical capsid assembly assay (fluorescence quenching). On the set-up: species or system hepatitis B virus. As to conditions: read-out: Assembly Activity (IC50); BODIPY-FL labelled core protein, 300 μM NaCl, read 6 min after start. The procedure, abridged: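 Assembly-induced fluorescence quenching (477/525 nm) was measured 6 min after NaCl addition ([…]), against 2.5 M and 0 M NaCl controls. The labelled C150 core dimer (truncated at 149) at 1.0-2.0 μM in HEPES pH 7.5 was tested with eight half-log compound dilutions, top 100, 31.6 or 10 μM. EC50 was obtained by non-linear fit from triplicates run three times.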

For orientation: CC50 means the concentration that lowers cell viability or growth by half. What is called EC50 is the concentration at which the effect is half-maximal. What is called IC50 is the concentration that inhibits the measured activity by half. For the compound `CN(CCO)C(=O)c1n[nH]c2c1CN(C(=O)c1cc3ccccc3[nH]1)CC2` [Example 100, N-(2-hydroxyethyl)-5-(1H-indole-2-carbonyl)-N-methyl-1H,4H,5H,6H,7H-pyrazolo[4,3-c]pyridine-3-carboxamide], the CC50 at 6 days in series [1] was over 100 µM. Besides, in series [2], the EC50 was under 1 µM. For the same compound, the IC50 in series [3] is under 5 µM.
On the same counts, the results for `O=C(c1cc2c(Cl)cccc2[nH]1)N1CCc2n[nH]c(-c3cscn3)c2C1` [Example 19, 4-chloro-2-[3-(1,3-thiazol-4-yl)-2H,4H,5H,6H,7H-pyrazolo[4,3-c]pyridine-5-carbonyl]-1H-indole] are over 10 µM, under 1 µM and under 5 µM.
On the same counts, the results for `CN(CCO)C(=O)c1n[nH]c2c1CN(C(=O)c1cc3c(Cl)cc(F)cc3[nH]1)CC2` [Example 60, 5-(4-chloro-6-fluoro-1H-indole-2-carbonyl)-N-(2-hydroxyethyl)-N-methyl-1H,4H,5H,6H,7H-pyrazolo[4,3-c]pyridine-3-carboxamide] are over 32 µM, under 1 µM and under 5 µM.
For the compound `CCc1cc(F)cc2[nH]c(C(=O)N3CCc4[nH]nc(C56CC(C5)C6)c4C3)cc12` [Example 334, 2-(3-{bicyclo[1.1.1]pentan-1-yl}-1H,4H,5H,6H,7H-pyrazolo[4,3-c]pyridine-5-carbonyl)-4-ethyl-6-fluoro-1H-indole], the CC50 at 6 days in series [1] is over 10 µM. For the same compound, in series [2], the EC50 was under 1 µM. Also, the IC50 in series [3] is under 5 µM.
The matching figures for `CC(C)(C)OC(=O)N[C@H]1CCN(C(=O)c2n[nH]c3c2CN(C(=O)c2cc4ccccc4[nH]2)CC3)C1` [Example 194, tert-butyl N-[(3S)-1-[5-(1H-indole-2-carbonyl)-1H,4H,5H,6H,7H-pyrazolo[4,3-c]pyridine-3-carbonyl]pyrrolidin-3-yl]carbamate]: over 10 µM, 1 to 25 µM and under 100 µM.
With `CN(CC1CCOCC1)C(=O)c1n[nH]c2c1CN(C(=O)c1cc3ccccc3[nH]1)CC2` [Example 85, 5-(1H-indole-2-carbonyl)-N-methyl-N-[(oxan-4-yl)methyl]-1H,4H,5H,6H,7H-pyrazolo[4,3-c]pyridine-3-carboxamide], the CC50 at 6 days in series [1] was over 100 µM. Also, the EC50 in series [2] lay within 1 to 25 µM. Also, the IC50 in series [3] is under 100 µM.
Turning to `O=C(c1cc2ccccc2[nH]1)N1CCc2[nH]nc(CO)c2C1` [Example 118, [5-(1H-indole-2-carbonyl)-1H,4H,5H,6H,7H-pyrazolo[4,3-c]pyridin-3-yl]methanol], the CC50 at 6 days in series [1] is over 100 µM. The EC50 in series [2] lay in the range of 1 to 25 µM. In series [3], the IC50 was 5 to 10 µM.
`COCC1(N(C)C(=O)c2n[nH]c3c2CN(C(=O)c2cc4cccc(F)c4[nH]2)CC3)CC1` [Example 308, 5-(7-fluoro-1H-indole-2-carbonyl)-N-[1-(methoxymethyl)cyclopropyl]-N-methyl-1H,4H,5H,6H,7H-pyrazolo[4,3-c]pyridine-3-carboxamide] showed a CC50 at 6 days in series [1] of over 10 µM. In addition, in series [2], the EC50 was under 1 µM. Further, in series [3], the IC50 is under 5 µM.
The matching figures for `Cc1cccc2[nH]c(C(=O)N3CCc4[nH]ncc4C3)cc12` [Example 136, 4-methyl-2-{1H,4H,5H,6H,7H-pyrazolo[4,3-c]pyridine-5-carbonyl}-1H-indole]: over 100 µM, under 1 µM and under 5 µM.
The matching figures for `CN1CCN(C(=O)c2n[nH]c3c2CN(C(=O)c2cc4ccccc4[nH]2)CC3)CC1` [Example 98, 2-[3-(4-methylpiperazine-1-carbonyl)-1H,4H,5H,6H,7H-pyrazolo[4,3-c]pyridine-5-carbonyl]-1H-indole]: over 32 µM, 1 to 25 µM and under 100 µM.
The compound `CN(CCS(C)(=O)=O)C(=O)c1n[nH]c2c1CN(C(=O)c1cc3ccccc3[nH]1)CC2` [Example 150, 5-(1H-indole-2-carbonyl)-N-(2-methanesulfonylethyl)-N-methyl-1H,4H,5H,6H,7H-pyrazolo[4,3-c]pyridine-3-carboxamide] displayed a 50% cytotoxic concentration (CC50) at 6 days in series [1] of over 10 µM. For the same compound, in series [2], the EC50 lay within 1 to 25 µM. In series [3], the IC50 is under 100 µM.
In series [1], `CN(CCO)C(=O)c1n[nH]c2c1CN(C(=O)c1cc3c(C(C)(F)F)cc(F)cc3[nH]1)CC2` [Example 27, 5-[4-(1,1-difluoroethyl)-6-fluoro-1H-indole-2-carbonyl]-N-(2-hydroxyethyl)-N-methyl-1H,4H,5H,6H,7H-pyrazolo[4,3-c]pyridine-3-carboxamide] returned a CC50 at 6 days of over 10 µM. For the same compound, the EC50 in series [2] is under 1 µM. In series [3], the IC50 was under 5 µM.
On the same counts, the results for `O=C(c1cc2ccccc2[nH]1)N1CCc2[nH]nc(C(=O)N3CCOCC3)c2C1` [Example 108, 2-[3-(morpholine-4-carbonyl)-1H,4H,5H,6H,7H-pyrazolo[4,3-c]pyridine-5-carbonyl]-1H-indole] are over 100 µM, 1 to 25 µM and under 100 µM.
In series [1], `COCCC1(N(C)C(=O)c2[nH]nc3c2CN(C(=O)c2cc4ccccc4[nH]2)CC3)CC1` [Example 248, 5-(1H-indole-2-carbonyl)-N-[1-(2-methoxyethyl)cyclopropyl]-N-methyl-2H,4H,5H,6H,7H-pyrazolo[4,3-c]pyridine-3-carboxamide] registered a CC50 at 6 days of over 10 µM. Also, in series [2], the EC50 is under 1 µM. The IC50 in series [3] was under 5 µM.
The matching figures for `CC1Cc2[nH]nc(-c3cscn3)c2CN1C(=O)c1cc2c(Cl)cc(F)cc2[nH]1` (stereo not drawn) [Example 37, 4-chloro-6-fluoro-2-[6-methyl-3-(1,3-thiazol-4-yl)-1H,4H,5H,6H,7H-pyrazolo[4,3-c]pyridine-5-carbonyl]-1H-indole]: over 32 µM, under 1 µM and 5 to 10 µM.
On the same counts, the results for `CN(C(=O)c1[nH]nc2c1CN(C(=O)c1cc3ccc(Cl)cc3[nH]1)CC2)C1CC1` [Example 325, 5-(6-chloro-1H-indole-2-carbonyl)-N-cyclopropyl-N-methyl-2H,4H,5H,6H,7H-pyrazolo[4,3-c]pyridine-3-carboxamide] are over 10 µM, under 1 µM and under 5 µM.
The matching figures for `CCc1cc(F)cc2[nH]c(C(=O)N3CCc4n[nH]c(C(=O)N(C)C5CC5)c4C3)cc12` [Example 330, N-cyclopropyl-5-(4-ethyl-6-fluoro-1H-indole-2-carbonyl)-N-methyl-2H,4H,5H,6H,7H-pyrazolo[4,3-c]pyridine-3-carboxamide]: over 10 µM, under 1 µM and under 5 µM.
`Cc1cccc2[nH]c(C(=O)N3CCc4[nH]nc(C(=O)N(C)CCO)c4C3)cc12` [Example 63, N-(2-hydroxyethyl)-N-methyl-5-(4-methyl-1H-indole-2-carbonyl)-1H,4H,5H,6H,7H-pyrazolo[4,3-c]pyridine-3-carboxamide] returned a CC50 at 6 days in series [1] of over 100 µM. In series [2], the EC50 is under 1 µM. Further, the IC50 in series [3] was under 5 µM.
The matching figures for `CN(C(=O)c1n[nH]c2c1CN(C(=O)c1cc3ccccc3[nH]1)CC2)[C@H]1CC[C@@H](O)CC1` [Example 174, 5-(1H-indole-2-carbonyl)-N-methyl-N-[(1s,4s)-4-hydroxycyclohexyl]-1H,4H,5H,6H,7H-pyrazolo[4,3-c]pyridine-3-carboxamide]: over 10 µM, 1 to 25 µM and under 100 µM.
Consider `CN(C(=O)c1[nH]nc2c1CN(C(=O)c1cc3cc(F)c(Cl)cc3[nH]1)CC2)C1CC1` [Example 329, 5-(6-chloro-5-fluoro-1H-indole-2-carbonyl)-N-cyclopropyl-N-methyl-2H,4H,5H,6H,7H-pyrazolo[4,3-c]pyridine-3-carboxamide], for which the CC50 at 6 days in series [1] was over 10 µM. Also, the EC50 in series [2] was under 1 µM. In addition, the IC50 in series [3] was under 5 µM.
The matching figures for `O=C(c1cc2ccccc2[nH]1)N1CCc2[nH]nc(C(=O)N3C[C@@H]4[C@@H](CO)[C@@H]4C3)c2C1` [Example 175, [(±)-3-[5-(1H-indole-2-carbonyl)-1H,4H,5H,6H,7H-pyrazolo[4,3-c]pyridine-3-carbonyl]-3-azabicyclo[3.1.0]hexan-6-yl]methanol]: over 10 µM, 1 to 25 µM and 5 to 10 µM.
As for `CCc1cccc2[nH]c(C(=O)N3CCc4[nH]nc(C56CC(C5)C6)c4C3)cc12` [Example 331, 2-(3-{bicyclo[1.1.1]pentan-1-yl}-1H,4H,5H,6H,7H-pyrazolo[4,3-c]pyridine-5-carbonyl)-4-ethyl-1H-indole], the CC50 at 6 days in series [1] is over 10 µM. Besides, the EC50 in series [2] is under 1 µM. The IC50 in series [3] is under 5 µM.
The matching figures for `CN(C(=O)c1n[nH]c2c1CN(C(=O)c1cc3ccccc3[nH]1)CC2)C1CCOCC1` [Example 199, 5-(1H-indole-2-carbonyl)-N-methyl-N-(oxan-4-yl)-1H,4H,5H,6H,7H-pyrazolo[4,3-c]pyridine-3-carboxamide]: over 10 µM, 1 to 25 µM and under 100 µM.
The matching figures for `CS(=O)(=O)CCNC(=O)c1n[nH]c2c1CN(C(=O)c1cc3ccccc3[nH]1)CC2` [Example 101, 5-(1H-indole-2-carbonyl)-N-(2-methanesulfonylethyl)-1H,4H,5H,6H7H-pyrazolo[4,3-c]pyridine-3-carboxamide]: over 100 µM, under 100 µM and under 100 µM.
